From patent US11912686B2 (Gilead Sciences, Inc., priority 2020, dated 2024)

Molecular target: human LPAR1 (Homo sapiens (Human), UniProt Q92633)
Experiment: LPAR1 intracellular calcium mobilization assay (antagonist mode, FLIPR)
Format: cell-based
Details: CHO-K1 EDG2 cells expressing human LPAR1, LPA 18:2 at EC80 (100 nM), test compound 0.5 nM to 10 μM

Chain of human LPAR1 (Q92633 whole entry): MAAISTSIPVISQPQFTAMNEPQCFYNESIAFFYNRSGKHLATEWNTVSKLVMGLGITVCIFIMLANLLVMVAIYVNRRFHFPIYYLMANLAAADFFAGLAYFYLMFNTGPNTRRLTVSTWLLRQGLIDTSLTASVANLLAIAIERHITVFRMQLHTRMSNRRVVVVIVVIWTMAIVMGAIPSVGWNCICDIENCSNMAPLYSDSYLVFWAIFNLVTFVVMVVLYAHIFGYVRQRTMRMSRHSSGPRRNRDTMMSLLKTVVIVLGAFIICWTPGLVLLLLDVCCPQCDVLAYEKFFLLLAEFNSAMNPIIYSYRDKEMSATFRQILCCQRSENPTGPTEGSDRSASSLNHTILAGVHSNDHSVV

| SMILES | EC50 |
| --- | --- |
| C[C@@H](OC(=O)Nc1c(-c2ccc(NC(=O)C3(N)CC(F)(F)C3)cn2)nnn1C)c1cccnc1Cl [Compound 310, (R)-1-(2-chloropyridin-3-yl)ethyl (4-(5-(1-amino-3,3-difluorocyclobutane-1-carboxamido)pyridin-2-yl)-1-methyl-1H-1,2,3-triazol-5-yl)carbamate] | 454 nM |
| C[C@@H](OC(=O)Nc1c(-c2ccc(NC(=O)C3CC(NC4CC4)C3)cn2)nnn1C)c1cccnc1Cl (some centres unmarked) [Compound 311] | 1530 nM |
| CC(=O)NC12CC(C(=O)Nc3ccc(-c4nnn(C)c4NC(=O)O[C@H](C)c4cccnc4Cl)nc3)(C1)C2 [Compound 312] | 1530 nM |
| Cc1nc(-c2nnn(C)c2NC(=O)O[C@H](C)c2cc(F)cnc2F)ccc1NC(=O)C1(C#N)CC1 [Compound 313, (R)-1-(2,5-difluoropyridin-3-yl)ethyl (4-(5-(1-cyanocyclopropane-1-carboxamido)-6-methylpyridin-2-yl)-1-methyl-1H-1,2,3-triazol-5-yl)carbamate] | 51.8 nM |
| Cc1nc(-c2nnn(C)c2NC(=O)O[C@H](C)c2cc(F)cnc2F)ccc1NC(=O)c1cnc(C(F)(F)F)nc1 [Compound 314, (R)-1-(2,5-difluoropyridin-3-yl)ethyl (1-methyl-4-(6-methyl-5-(2-(trifluoromethyl)pyrimidine-5-carboxamido)pyridin-2-yl)-1H-1,2,3-triazol-5-yl)carbamate] | 2.9 nM |
| C[C@@H](OC(=O)Nc1c(-c2ccc(NC(=O)c3ccc(C(F)(F)F)nc3)c(F)n2)nnn1C)c1cccnc1Cl [Compound 315, (R)-1-(2-chloropyridin-3-yl)ethyl (4-(6-fluoro-5-(6-(trifluoromethyl)nicotinamido)pyridin-2-yl)-1-methyl-1H-1,2,3-triazol-5-yl)carbamate] | 12.7 nM |
| C[C@@H](OC(=O)Nc1c(-c2ccc(NC(=O)C3(C#N)CC3)c(F)n2)nnn1C)c1cccnc1Cl [Compound 316, (R)-1-(2-chloropyridin-3-yl)ethyl (4-(5-(1-cyanocyclopropane-1-carboxamido)-6-fluoropyridin-2-yl)-1-methyl-1H-1,2,3-triazol-5-yl)carbamate] | 41.6 nM |
| C[C@@H](OC(=O)Nc1c(-c2cc(F)c(NC(=O)c3ccc(C(F)(F)F)nc3)cn2)nnn1C)c1cccnc1Cl [Compound 317, (R)-1-(2-chloropyridin-3-yl)ethyl (4-(4-fluoro-5-(6-(trifluoromethyl)nicotinamido)pyridin-2-yl)-1-methyl-1H-1,2,3-triazol-5-yl)carbamate] | 90.5 nM |
| C[C@@H](OC(=O)Nc1c(-c2ccc(NC(=O)c3cnc(C(F)(F)F)nc3)c(F)n2)nnn1C)c1cccnc1Cl [Compound 318, (R)-1-(2-chloropyridin-3-yl)ethyl (4-(6-fluoro-5-(2-(trifluoromethyl)pyrimidine-5-carboxamido)pyridin-2-yl)-1-methyl-1H-1,2,3-triazol-5-yl)carbamate] | 9.5 nM |
| C[C@@H](OC(=O)Nc1c(-c2ncc(NC(=O)c3ccc(Cl)nc3)cn2)nnn1C)c1cc(F)cnc1F [Compound 319, (R)-1-(2,5-difluoropyridin-3-yl)ethyl (4-(5-(6-chloronicotinamido)pyrimidin-2-yl)-1-methyl-1H-1,2,3-triazol-5-yl)carbamate] | 1500 nM |
| C[C@@H](OC(=O)Nc1c(-c2cnc(NC(=O)c3ccc(Cl)nc3)cn2)nnn1C)c1cc(F)cnc1F [Compound 320, (R)-1-(2,5-difluoropyridin-3-yl)ethyl (4-(5-(6-chloronicotinamido)pyrazin-2-yl)-1-methyl-1H-1,2,3-triazol-5-yl)carbamate] | 131 nM |
| C[C@@H](OC(=O)Nc1c(-c2cnc(NC(=O)c3ccc(C(F)F)nc3)cn2)nnn1C)c1cc(F)cnc1F [Compound 321, (R)-1-(2,5-difluoropyridin-3-yl)ethyl (4-(5-(6-(difluoromethyl)nicotinamido)pyrazin-2-yl)-1-methyl-1H-1,2,3-triazol-5-yl)carbamate] | 309 nM |
| C[C@@H](OC(=O)Nc1c(-c2cnc(NC(=O)c3ccc(C(F)(F)F)nc3)cn2)nnn1C)c1cc(F)cnc1F [Compound 322, (R)-1-(2,5-difluoropyridin-3-yl)ethyl (1-methyl-4-(5-(6-(trifluoromethyl)nicotinamido)pyrazin-2-yl)-1H-1,2,3-triazol-5-yl)carbamate] | 170 nM |
| C[C@@H](OC(=O)Nc1c(-c2cnc(NC(=O)c3ccnc(F)c3F)cn2)nnn1C)c1cc(F)cnc1F [Compound 323, (R)-1-(2,5-difluoropyridin-3-yl)ethyl (4-(5-(2,3-difluoroisonicotinamido)pyrazin-2-yl)-1-methyl-1H-1,2,3-triazol-5-yl)carbamate] | 178 nM |
| C[C@@H](OC(=O)Nc1c(-c2cnc(NC(=O)c3cnc(C(F)F)nc3)cn2)nnn1C)c1cccnc1Cl [Compound 324, (R)-1-(2-chloropyridin-3-yl)ethyl (4-(5-(2-(difluoromethyl)pyrimidine-5-carboxamido)pyrazin-2-yl)-1-methyl-1H-1,2,3-triazol-5-yl)carbamate] | 53.7 nM |
| C[C@@H](OC(=O)Nc1c(-c2cnc(NC(=O)c3cnc(C(F)(F)F)nc3)cn2)nnn1C)c1cccnc1F [Compound 325, (R)-1-(2-fluoropyridin-3-yl)ethyl (1-methyl-4-(5-(2-(trifluoromethyl)pyrimidine-5-carboxamido)pyrazin-2-yl)-1H-1,2,3-triazol-5-yl)carbamate] | 185 nM |
| C[C@@H](OC(=O)Nc1c(-c2cnc(NC(=O)c3ccc(C(F)(F)F)nc3)cn2)nnn1C)c1cccnc1F [Compound 326, (R)-1-(2-fluoropyridin-3-yl)ethyl (1-methyl-4-(5-(6-(trifluoromethyl)nicotinamido)pyrazin-2-yl)-1H-1,2,3-triazol-5-yl)carbamate] | 305 nM |
| C[C@@H](OC(=O)Nc1c(-c2cnc(NC(=O)c3cnc(C(F)F)nc3)cn2)nnn1C)c1cccnc1F [Compound 327, (R)-1-(2-fluoropyridin-3-yl)ethyl (4-(5-(2-(difluoromethyl)pyrimidine-5-carboxamido)pyrazin-2-yl)-1-methyl-1H-1,2,3-triazol-5-yl)carbamate] | 255 nM |
| C[C@@H](OC(=O)Nc1c(-c2cnc(NC(=O)C3(C#N)CC3)cn2)nnn1C)c1cc(F)cnc1F [Compound 328, (R)-1-(2,5-difluoropyridin-3-yl)ethyl (4-(5-(1-cyanocyclopropane-1-carboxamido)pyrazin-2-yl)-1-methyl-1H-1,2,3-triazol-5-yl)carbamate] | 1130 nM |
| C[C@@H](OC(=O)Nc1c(-c2ncc(NC(=O)C3(C#N)CC3)cn2)nnn1C)c1cc(F)cnc1Cl [Compound 329, (R)-1-(2-chloro-5-fluoropyridin-3-yl)ethyl (4-(5-(1-cyanocyclopropane-1-carboxamido)pyrimidin-2-yl)-1-methyl-1H-1,2,3-triazol-5-yl)carbamate] | 749 nM |
| C[C@@H](OC(=O)Nc1c(-c2ncc(NC(=O)C34CC(F)(C3)C4)cn2)nnn1C)c1cc(F)cnc1Cl [Compound 330, (R)-1-(2-chloro-5-fluoropyridin-3-yl)ethyl (4-(5-(3-fluorobicyclo[1.1.1]pentane-1-carboxamido)pyrimidin-2-yl)-1-methyl-1H-1,2,3-triazol-5-yl)carbamate] | 600 nM |
| C[C@@H](OC(=O)Nc1c(-c2ncc(NC(=O)[C@@H]3C[C@H]3C(F)(F)F)cn2)nnn1C)c1cc(F)cnc1Cl [Compound 331, (R)-1-(2-chloro-5-fluoropyridin-3-yl)ethyl (1-methyl-4-(5-((1R,2R)-2-(trifluoromethyl)cyclopropane-1-carboxamido)pyrimidin-2-yl)-1H-1,2,3-triazol-5-yl)carbamate] | 22.8 nM |
| C[C@@H](OC(=O)Nc1c(-c2ncc(NC(=O)c3ccc(C(F)(F)F)nc3)cn2)nnn1C)c1cc(F)cnc1Cl [Compound 332, (R)-1-(2-chloro-5-fluoropyridin-3-yl)ethyl (1-methyl-4-(5-(6-(trifluoromethyl)nicotinamido)pyrimidin-2-yl)-1H-1,2,3-triazol-5-yl)carbamate] | 354 nM |
| C[C@@H](OC(=O)Nc1c(-c2cnc(NC(=O)C34CC(F)(C3)C4)cn2)nnn1C)c1cc(F)cnc1Cl [Compound 333, (R)-1-(2-chloro-5-fluoropyridin-3-yl)ethyl (4-(5-(3-fluorobicyclo[1.1.1]pentane-1-carboxamido)pyrazin-2-yl)-1-methyl-1H-1,2,3-triazol-5-yl)carbamate] | 219 nM |
| CO[C@]1(C#N)C[C@@H](C(=O)Nc2cnc(-c3nnn(C)c3NC(=O)O[C@H](C)c3cc(F)cnc3F)nc2)C1 [Compound 334, (R)-1-(2,5-difluoropyridin-3-yl)ethyl (4-(5-((1r,3R)-3-cyano-3-methoxycyclobutane-1-carboxamido)pyrimidin-2-yl)-1-methyl-1H-1,2,3-triazol-5-yl)carbamate] | 3420 nM |
| CO[C@]1(C#N)C[C@H](C(=O)Nc2cnc(-c3nnn(C)c3NC(=O)O[C@H](C)c3cc(F)cnc3F)nc2)C1 [Compound 335, (R)-1-(2,5-difluoropyridin-3-yl)ethyl (4-(5-((1s,3S)-3-cyano-3-methoxycyclobutane-1-carboxamido)pyrimidin-2-yl)-1-methyl-1H-1,2,3-triazol-5-yl)carbamate] | 778 nM |
| C[C@@H](OC(=O)Nc1c(-c2ncc(NC(=O)C3(C#N)CC3)cc2F)nnn1C)c1cc(F)cnc1F [Compound 336, (R)-1-(2,5-difluoropyridin-3-yl)ethyl (4-(5-(1-cyanocyclopropane-1-carboxamido)-3-fluoropyridin-2-yl)-1-methyl-1H-1,2,3-triazol-5-yl)carbamate] | 258 nM |
| C[C@@H](OC(=O)Nc1c(-c2ncc(NC(=O)C34CC(C#N)(C3)C4)cc2F)nnn1C)c1cc(F)cnc1F [Compound 337, (R)-1-(2,5-difluoropyridin-3-yl)ethyl (4-(5-(3-cyanobicyclo[1.1.1]pentane-1-carboxamido)-3-fluoropyridin-2-yl)-1-methyl-1H-1,2,3-triazol-5-yl)carbamate] | 163 nM |
| C[C@@H](OC(=O)Nc1c(-c2ncc(NC(=O)c3ccc(Cl)nc3)cc2F)nnn1C)c1cc(F)cnc1F [Compound 338, (R)-1-(2,5-difluoropyridin-3-yl)ethyl (4-(5-(6-chloronicotinamido)-3-fluoropyridin-2-yl)-1-methyl-1H-1,2,3-triazol-5-yl)carbamate] | 132 nM |
